These results are taken from patent US20180008587A1, “THIOHYDANTOIN ANDROGEN RECEPTOR ANTAGONISTS FOR THE TREATMENT OF CANCER” (Jaressen Pharmaceutica NV, priority 2016, published 2018).

Positions count from the first letter of the chain named. Read-outs that look alike come from different tables or passages of the source. A value given as a limit tells only on which side of the number the result lay.

What all share (assay type): cell-based
Assay [1] concerns the target T1, wild-type Androgen Receptor (AR-wt) (Homo sapiens, UniProt P10275).
T1 construct: expressed in transfected cells; host or cells: LNCaP (LNCaP AR (cs))
T1 sequence (P10275 1-920): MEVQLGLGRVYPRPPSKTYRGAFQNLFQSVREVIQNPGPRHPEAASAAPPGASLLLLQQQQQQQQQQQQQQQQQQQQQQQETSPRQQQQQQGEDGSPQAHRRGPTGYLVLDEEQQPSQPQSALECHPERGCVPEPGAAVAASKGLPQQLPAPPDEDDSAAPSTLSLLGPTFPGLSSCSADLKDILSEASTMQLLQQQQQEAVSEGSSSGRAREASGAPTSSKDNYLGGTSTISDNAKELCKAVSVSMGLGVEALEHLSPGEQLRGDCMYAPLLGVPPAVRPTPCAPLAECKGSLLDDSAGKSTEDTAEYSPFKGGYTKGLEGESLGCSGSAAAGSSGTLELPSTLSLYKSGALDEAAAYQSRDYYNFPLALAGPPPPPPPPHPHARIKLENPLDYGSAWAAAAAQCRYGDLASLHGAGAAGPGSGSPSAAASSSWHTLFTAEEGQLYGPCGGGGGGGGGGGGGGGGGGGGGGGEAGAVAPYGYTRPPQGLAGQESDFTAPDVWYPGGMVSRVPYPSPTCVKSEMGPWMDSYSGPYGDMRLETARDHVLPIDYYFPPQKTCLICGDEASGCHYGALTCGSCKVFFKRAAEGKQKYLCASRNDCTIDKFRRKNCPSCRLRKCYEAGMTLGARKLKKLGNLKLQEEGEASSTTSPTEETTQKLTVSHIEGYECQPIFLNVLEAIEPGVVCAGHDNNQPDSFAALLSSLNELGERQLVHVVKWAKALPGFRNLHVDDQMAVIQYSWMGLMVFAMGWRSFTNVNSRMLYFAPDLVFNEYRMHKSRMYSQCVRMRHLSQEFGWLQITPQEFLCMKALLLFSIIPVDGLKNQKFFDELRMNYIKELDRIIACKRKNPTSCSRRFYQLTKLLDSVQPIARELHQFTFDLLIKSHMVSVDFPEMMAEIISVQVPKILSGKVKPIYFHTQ
Kind of assay: LNCaP-AR-wt ANT reporter assay (ARE firefly luciferase, antagonist mode). Conditions: for IC50: antagonist mode, 400 pM R-1881 challenge, −Log10(IC50 [Molar]), read-out: LNCaP-AR-wt ANT pIC50 (converted); for Emax: read-out: LNCaP-AR-wt ANT MAX % Inh. An outline of the steps: (§1)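 LNCaP stable pooled lines expressing ARE-firefly luciferase, in charcoal-stripped serum medium, were exposed to compounds; antagonist mode used agonist at 400 pM (WT) or 600 pM (F876L).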

Assay [2] concerns the target T1, wild-type Androgen Receptor (AR-wt). Kind of assay: LNCaP-AR-wt AG reporter assay (ARE firefly luciferase, agonist mode). Conditions: for Emax: read-out: LNCaP-AR-wt AG MAX % Stim. An outline of the steps:
(§2)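 LNCaP cells stably expressing wild-type or F876L AR (puromycin-selected pooled populations) were cultured in charcoal-stripped serum medium. In antagonist mode, agonist challenge was 400 pM for wild-type and 600 pM for F876L.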

Assay [3] addresses T2, F876L mutant Androgen Receptor (AR-F876L) (Homo sapiens, UniProt P10275, F877L).
T2 construct: expressed in transfected cells; host or cells: LNCaP (LNCaP F876L)
T2 sequence (P10275 1-920 F877L): T1 sequence (P10275 1-920) with F877L
Kind of assay: LNCaP-AR-F876L ANT reporter assay (ARE firefly luciferase, antagonist mode). The note with it: for Emax: read-out: LNCaP-AR-F876L ANT MAX % Inh. An outline of the steps:
as §1

Assay [4] concerns the target T2, F876L mutant Androgen Receptor (AR-F876L). Kind of assay: LNCaP-AR-F876L AG reporter assay (ARE firefly luciferase, agonist mode). Conditions: for Emax: read-out: LNCaP-AR-F876L AG MAX % Stim. A digest of the protocol:
as §2

Where [5] appears, read: maximum % inhibition of R1881 control response over tested concentration range.
Setting [6] is: agonist mode, −Log10(EC50 [Molar]), read-out: LNCaP-AR-wt AG pEC50 (converted).
Setting [7] is: maximum % stimulation (agonist response) over tested concentration range.
Where [8] appears, read: read-out: LNCaP-AR-F876L ANT pIC50 (converted).
[9] abbreviates: agonist mode, −Log10(EC50 [Molar]), read-out: LNCaP-AR-F876L AG pEC50 (converted).

As to `N#Cc1ncc(N2C(=O)C3(CCC3)N(c3ccc(OCCc4ncccn4)c(F)c3)C2=S)cc1C(F)(F)F` [Cpd 56, 5-[8-[3-fluoro-4-(2-pyrimidin-2-ylethoxy)phenyl]-5-oxo-7-thioxo-6,8-diazaspiro[3.4]octan-6-yl]-3-(trifluoromethyl)pyridine-2-carbonitrile], the IC50 in assay [1] is 851 nM; in assay [3] (setting [8]) it was 832 nM. Also, the Emax in assay [1] (setting [5]) is 99.7%; in assay [2] (setting [7]) it was 0.5%; in assay [3] (setting [5]), 97.8%; in assay [4] (setting [7]), 0.4%. Besides, the EC50 in assay [2] (setting [6]) and in assay [4] (setting [9]) was > 15100 nM throughout.
Turning to `N#Cc1ncc(N2C(=O)C3(CCC3)N(c3ccc(C(=O)NCCCc4ccccc4)c(F)c3)C2=S)cc1C(F)(F)F` [Cpd 57, 4-[6-[6-cyano-5-(trifluoromethyl)-3-pyridyl]-5-oxo-7-thioxo-6,8-diazaspiro[3.4]octan-8-yl]-2-fluoro-N-(3-phenylpropyl)benzamide], the IC50 in assay [1] was 324 nM; in assay [3] (setting [8]), 479 nM. Moreover, the Emax in assay [1] turned out to be 99%; in assay [2] it was 0%; in assay [3] it was 95.5%; in assay [4], 0.5%. Further, the EC50 in assay [2] and in assay [4] was > 15100 nM each time.
Consider `CCCCNC(=O)c1ccc(N2C(=S)N(c3cnc(C#N)c(C(F)(F)F)c3)C(=O)C23CCC3)cc1F` [Cpd 58, N-butyl-4-[6-[6-cyano-5-(trifluoromethyl)-3-pyridyl]-5-oxo-7-thioxo-6,8-diazaspiro[3.4]octan-8-yl]-2-fluoro-benzamide], for which the IC50 in assay [1] was 245 nM; in assay [3] (setting [8]), 204 nM. The Emax was 102% in assay [1] (setting [5]), 0.1% in assay [2] (setting [7]), 98.2% in assay [3] (setting [5]) and 0.6% in assay [4] (setting [7]). Further, the EC50 in assay [2] (setting [6]) and in assay [4] (setting [9]) was > 15100 nM throughout.
In the case of `N#Cc1ncc(N2C(=O)C3(CCC3)N(c3ccc(C(=O)NCc4cccs4)c(F)c3)C2=S)cc1C(F)(F)F` [Cpd 59, 4-[6-[6-cyano-5-(trifluoromethyl)-3-pyridyl]-5-oxo-7-thioxo-6,8-diazaspiro[3.4]octan-8-yl]-2-fluoro-N-(2-thienylmethyl)benzamide], the IC50 in assay [1] was 1290 nM; in assay [3] (setting [8]), 676 nM. Moreover, the Emax in assay [1] turned out to be 102%; in assay [2], 1.5%; in assay [3], 100%; in assay [4], 0.7%. Also, the EC50 in assay [2] and in assay [4] was > 15100 nM each time.
Regarding `CCN1CCC(Oc2ccc(N3C(=S)N(c4cnc(C#N)c(C)c4)C(=O)C34CCC4)cc2)CC1` [Cpd 61, 5-[8-[4-[(1-ethyl-4-piperidyl)oxy]phenyl]-5-oxo-7-thioxo-6,8-diazaspiro[3.4]octan-6-yl]-3-methyl-pyridine-2-carbonitrile], the IC50 is 1260 nM in assay [1] and 380 nM in assay [3] (setting [8]). Besides, the Emax in assay [1] (setting [5]) turned out to be 100%; in assay [2] (setting [7]), 1.1%; in assay [3] (setting [5]), 100%; in assay [4] (setting [7]) it was 0.7%. For the same molecule, the EC50 in assay [2] (setting [6]) and in assay [4] (setting [9]) was > 15100 nM each time.
For the molecule `Cc1cc(N2C(=O)C3(CCC3)N(c3ccc(Oc4ccncn4)cc3)C2=S)cnc1C#N` [Cpd 62, 3-methyl-5-[5-oxo-8-(4-pyrimidin-4-yloxyphenyl)-7-thioxo-6,8-diazaspiro[3.4]octan-6-yl]pyridine-2-carbonitrile], the IC50 in assay [1] is 339 nM; in assay [3], 91.2 nM. For the same molecule, the Emax was determined as 98.8% in assay [1], 0.8% in assay [2], 99.7% in assay [3] and 0.4% in assay [4]. Also, the EC50 in assay [2] and in assay [4] was > 15100 nM each time.
Consider `Cc1cc(N2C(=O)C3(CCC3)N(c3ccc(C(=O)Nc4nccs4)c(F)c3)C2=S)cnc1C#N` [Cpd 63, 4-[6-(6-cyano-5-methyl-3-pyridyl)-5-oxo-7-thioxo-6,8-diazaspiro[3.4]octan-8-yl]-2-fluoro-N-thiazol-2-yl-benzamide], for which the IC50 is 776 nM in assay [1] and 219 nM in assay [3] (setting [8]). Moreover, the Emax was 68.6% in assay [1], 0.7% in assay [2], 83.4% in assay [3] and 0.3% in assay [4]. Besides, the EC50 in assay [2] and in assay [4] was > 15100 nM each time.
Consider `CN(CCCNC(=O)c1ccc(N2C(=S)N(c3cnc(C#N)c(C(F)(F)F)c3)C(=O)C23CCC3)cc1F)C1CCCC1` [Cpd 64, 4-[6-[6-cyano-5-(trifluoromethyl)-3-pyridyl]-5-oxo-7-thioxo-6,8-diazaspiro[3.4]octan-8-yl]-N-[3-[cyclopentyl(methyl)amino]propyl]-2-fluoro-benzamide], for which the results for the IC50 in assay [1] and in assay [3] (setting [8]) were 282 nM and 174 nM, respectively. The Emax is 98.9% in assay [1] (setting [5]), 1.2% in assay [2] (setting [7]), 98.1% in assay [3] (setting [5]) and 0.7% in assay [4] (setting [7]). Also, the EC50 in assay [2] (setting [6]) and in assay [4] (setting [9]) was > 15100 nM each time.
With `N#Cc1ncc(N2C(=O)C3(CCC3)N(c3ccc(OCCN4CCCC4)c(F)c3)C2=S)cc1C(F)(F)F` [Cpd 66, 5-[8-[3-fluoro-4-(2-pyrrolidin-1-ylethoxy)phenyl]-5-oxo-7-thioxo-6,8-diazaspiro[3.4]octan-6-yl]-3-(trifluoromethyl)pyridine-2-carbonitrile], the IC50 in assay [1] is 1150 nM; in assay [3] (setting [8]), 603 nM. In addition, the Emax in assay [1] (setting [5]) came out at 98.9%; in assay [2] (setting [7]) it was 0.6%; in assay [3] (setting [5]), 96.2%; in assay [4] (setting [7]), 0.1%. Besides, the EC50 in assay [2] (setting [6]) and in assay [4] (setting [9]) was > 15100 nM throughout.
